From patent US11872228B2, “Pharmaceutical composition containing thiamine derivative for prevention or treatment of sepsis” (KYUNGPOOK NATIONAL UNIVERSITY INDUSTRY-ACADEMIC COOPERATION …, priority 2021, dated 2024)
Read-outs that look alike come from different tables or passages of the source.

Key:
[1] = system: LPS-induced sepsis mouse model
Procedure: (The signs of the moribund state: impaired mobility, inability to maintain upright position, prolonged lack of activity and labored breathing)
Six- to eight-week old C57BL/6J male mice were grouped, each group containing seven mice. The whole experimental schedule is shown FIG. 1. The mice were fed fursultiamine 24 hours and 30 minutes before intraperitoneal injection of 40 mg/kg LPS, and then again administered fursultiamine 6 hours after the intraperitoneal injection, and then the survival rates of the mice were monitored and the results are shown in FIG. 2 and Table 1.

CD86 [2] = assay: CD86 expression in CD11c+ dendritic cells by flow cytometry; format: cell-based, C57BL/6J male mice; settings: 50 μM, 100 ng/mL LPS
TNFα [3] = assay: Inhibition of TNFα expression in LPS-activated dendritic cells (ELISA of supernatants); format: cell-based, C57BL/6J male mice; settings: for TNFα (pg/mL): dendritic cells, 100 ng/mL LPS 18 h; for TNFα expression level relative to LPS alone: LPS-activated dendritic cells
Procedure: (§1) The dendritic cells at 1×10^6 cells/mL were treated with benfotiamine and fursultiamine at different concentrations of 0, 1, 10, and 100 and allithiamine at different concentrations of 0, 1, and 10 μM.
Thereafter, the dendritic cells were activated with 100 ng/mL LPS for 18 hours.

CD40 = CD40 expression in CD11c+ dendritic cells by flow cytometry; format: cell-based, C57BL/6J male mice
Procedure: as §1
(§2) The dendritic cells were measured for CD40 and CD86 in CD11c+ cells by flow cytometry, and the results are shown in FIGS. 6A and 6B and Tables 5 and 6.

IL-1β [4] = assay: Inhibition of IL-1β expression in LPS-primed, ATP-treated dendritic cells; format: cell-based, C57BL/6J male mice; settings: for IL-1β: LPS priming + 5 mM ATP
Procedure: Bone marrow was extracted from the legs of six- to eight-week old C57BL/6J male mice, and subjected to red blood cell (RBC) lysis, followed by differentiation into dendritic cells in RPMI 1640 medium (10% fetal bovine serum (FBS) and 1% penicillin-streptomycin) along with 20 ng/ml granulocyte-macrophage colony-stimulating factor (GM-CSF) for six days. The dendritic cells at 1×10^6 cells/mL were treated with benfotiamine and fursultiamine at different concentrations of 0, 1, 10, and 100 and allithiamine at different concentrations of 0, 1, and 10 μM.
The dendritic cells were subjected to pro-IL1b priming by the treatment with 500 ng/mL LPS for 3 hours, and then treated with benfotiamine at 0, 10, 50, or 100 and fursultiamine at 0, 10, 50, or 100 μM, for 15 minutes. Then, pro-IL1b was converted into IL-1β through pro-IL1b cleavage, followed by 5 mM ATP treatment for inducing inflammasome formation.

TNFα [5] = assay: Inhibition of TNFα expression in LPS-activated dendritic cells (ELISA of supernatants); format: cell-based, C57BL/6J male mice; settings: for TNFα expression level relative to LPS alone: LPS-activated dendritic cells; for TNFα: dendritic cells not stimulated by LPS
IL-1β [6] = system: IL-1β
CD86 [7] = assay: CD86 expression in CD11c+ dendritic cells by flow cytometry; format: cell-based, C57BL/6J male mice
Procedure: as §1, §2

[8] = system: LPS-induced sepsis mouse model; assay: Survival rate of murine sepsis model, allithiamine treatment; format: in vivo, C57BL/6J male mice
Procedure: The mice were intravenously (I.V.) administered 5 mg/kg allithiamine immediately before intraperitoneal injection of 50 mg/kg LPS, and then the survival rates were monitored (allithiamine 5 mg/kg co-treatment). In addition, the mice were intravenously administered 5 mg/kg allithiamine three hours after LPS injection, and then the survival rates were monitored (allithiamine 5 mg/kg 3 h-delayed co-treatment), and the results are shown in FIG. 3 and Table 2.

TNFα [9] = assay: Inhibition of TNFα expression in vivo (allithiamine along with LPS); parameters: species or system mice
Procedure: The inhibition of TNFα expression in vivo was investigated by the administration of 5 mg/kg allithiamine along with 50 mg/kg LPS, and the results are shown in FIG. 7A and Table 7.

[10] = 1 μM, dendritic cells, 100 ng/mL LPS
[11] = 10 μM, dendritic cells, 100 ng/mL LPS
[12] = 100 μM, dendritic cells not stimulated by LPS
[13] = 100 μM, dendritic cells, 100 ng/mL LPS
[14] = 10 μM, dendritic cells not stimulated by LPS
[15] = allithiamine 5 mg/kg along with LPS 50 mg/kg

## CC(=C(CCO)SSCC1CCCO1)N(C=O)Cc1cnc(C)nc1N (stereo in doubt) [Fursultiamine, fursultiamine]
[1]; fed 100 mg/kg, 40 mg/kg LPS i.p.
  Survival despite LPS injection (in words): not dead
[1]; fursultiamine 100 mg/kg fed 24 h and 30 min before and 6 h after 40 mg/kg LPS i.p., 0 d
  Percent survival (%): 100%
[1]; fursultiamine 100 mg/kg fed, 40 mg/kg LPS i.p., 1 d
  Percent survival (%): 100%
[1]; fursultiamine 100 mg/kg fed, 40 mg/kg LPS i.p., 2 d
  Percent survival (%): 100%
[1]; fursultiamine 100 mg/kg fed, 40 mg/kg LPS i.p., 3 d
  Percent survival (%): 100%
[1]; fursultiamine 100 mg/kg fed, 40 mg/kg LPS i.p., 4 d
  Percent survival (%): 100%
[1]; fursultiamine 100 mg/kg fed, 40 mg/kg LPS i.p., 5 d
  Percent survival (%): 100%
[1]; fursultiamine 100 mg/kg fed, 40 mg/kg LPS i.p., 6 d
  Percent survival (%): 100%
[1]; fursultiamine 100 mg/kg fed, 40 mg/kg LPS i.p., 7 d
  Percent survival (%): 100%
CD86 [2]
  CD86 (Mean fluorescence intensity; MFI): 1,275 MFI
TNFα [3]; 1 μM
  TNFα (pg/mL): 4,954.64 pg/mL
TNFα [3]; 10 μM
  TNFα expression level relative to LPS alone: about 68.60%
  TNFα (pg/mL): 3,600.63 pg/mL
TNFα [3]; 100 μM
  TNFα (pg/mL): 1,628.26 pg/mL
CD40; [10]
  CD40 (Mean fluorescence intensity; MFI): 1,992 MFI
CD40; [11]
  CD40 (Mean fluorescence intensity; MFI): 2,026 MFI
CD40; 100 μM, dendritic cells
  CD40 expression level relative to LPS alone: about 62%
CD40; [12]
  CD40 (Mean fluorescence intensity; MFI): 253 MFI
CD40; [13]
  CD40 (Mean fluorescence intensity; MFI): 1,245 MFI
IL-1β [4]; 10 μM
  IL-1β: 878.0075 pg/mL
IL-1β [4]; 50 μM
  IL-1β expression level relative to LPS + ATP alone: about 85.8237%
  IL-1β: 799.4891 pg/mL
IL-1β [4]; 100 μM
  IL-1β expression level relative to LPS + ATP alone: about 63.6037%
  IL-1β: 592.4987 pg/mL
TNFα [5]; 50 μM
  TNFα expression level relative to LPS alone: about 57.22%
TNFα [5]; 50 μM, dendritic cells, 100 ng/mL LPS 18 h
  TNFα (pg/mL): 3,003.47 pg/mL
TNFα [5]; 100 μM
  TNFα expression level relative to LPS alone: about 31.02%
  TNFα: 38.37 pg/mL
IL-1β [6]; fursultiamine (50 mg/kg as in table; 100 mg/kg in text) along with LPS, 0 h
  IL-1β: 4.483 pg/mL
IL-1β [6]; fursultiamine along with LPS, 1 h
  IL-1β: 6.115 pg/mL
IL-1β [6]; fursultiamine along with LPS, 3 h
  IL-1β: 96.715 pg/mL
IL-1β [6]; fursultiamine along with LPS, 6 h
  IL-1β: 186.088 pg/mL
IL-1β [6]; fursultiamine along with LPS, 6 hours
  IL-1β expression level relative to the control without administration: about 54.936%
IL-1β [6]; fursultiamine along with LPS, 12 h
  IL-1β: 495.824 pg/mL
IL-1β [6]; fursultiamine along with LPS, 12 hours
  IL-1β expression level relative to the control without administration: about 60.777%
IL-1β [6]; fursultiamine along with LPS, 18 h
  IL-1β: 171.451 pg/mL
IL-1β [6]; fursultiamine along with LPS, 18 hours
  IL-1β expression level relative to the control without administration: about 29.673%
CD86 [7]; [10]
  CD86 (Mean fluorescence intensity; MFI): 2,684 MFI
CD86 [7]; [11]
  CD86 (Mean fluorescence intensity; MFI): 2,864 MFI
CD86 [7]; 100 μM, dendritic cells
  CD86 expression level relative to LPS alone: about 13%
CD86 [7]; [12]
  CD86 (Mean fluorescence intensity; MFI): 382 MFI
CD86 [7]; [13]
  CD86 (Mean fluorescence intensity; MFI): 351 MFI

## C=CCSS/C(CCO)=C(/C)N(C=O)Cc1cnc(C)nc1N [Allithiamine, allithiamine]
[8]; 5 mg/kg i.v. 3 h-delayed treatment (3 h after 50 mg/kg LPS i.p.), 0 h
  Percent survival (%): 100%
[8]; 5 mg/kg i.v. 3 h-delayed treatment, 50 mg/kg LPS, 20 h
  Percent survival (%): 100%
[8]; 5 mg/kg i.v. 3 h-delayed treatment, 50 mg/kg LPS, 24 h
  Percent survival (%): 100%
[8]; 5 mg/kg i.v. 3 h-delayed treatment, 50 mg/kg LPS, 28 h
  Percent survival (%): 83.3%
[8]; 5 mg/kg i.v. 3 h-delayed treatment, 50 mg/kg LPS, 32 h
  Percent survival (%): 83.3%
[8]; 5 mg/kg i.v. 3 h-delayed treatment, 50 mg/kg LPS, 36 h
  Percent survival (%): 83.3%
[8]; 5 mg/kg i.v. 3 h-delayed treatment, 50 mg/kg LPS, 40 h
  Percent survival (%): 83.3%
[8]; 5 mg/kg i.v. 3 h-delayed treatment, 50 mg/kg LPS, 44 h
  Percent survival (%): 66.7%
[8]; 5 mg/kg i.v. 3 h-delayed treatment, 50 mg/kg LPS, 48 h
  Percent survival (%): 66.7%
[8]; 5 mg/kg i.v. 3 h-delayed treatment, 50 mg/kg LPS, 52 h
  Percent survival (%): 66.7%
[8]; 5 mg/kg i.v. 3 h-delayed treatment, 50 mg/kg LPS, 56 h
  Percent survival (%): 66.7%
[8]; 5 mg/kg i.v. 3 h-delayed treatment, 50 mg/kg LPS, 60 h
  Percent survival (%): 66.7%
[8]; 5 mg/kg i.v. co-treatment (immediately before 50 mg/kg LPS i.p.), 0 h
  Percent survival (%): 100%
[8]; 5 mg/kg i.v. co-treatment, 50 mg/kg LPS, 20 h
  Percent survival (%): 100%
[8]; 5 mg/kg i.v. co-treatment, 50 mg/kg LPS, 24 h
  Percent survival (%): 83.3%
[8]; 5 mg/kg i.v. co-treatment, 50 mg/kg LPS, 28 h
  Percent survival (%): 83.3%
[8]; 5 mg/kg i.v. co-treatment, 50 mg/kg LPS, 32 h
  Percent survival (%): 83.3%
[8]; 5 mg/kg i.v. co-treatment, 50 mg/kg LPS, 36 h
  Percent survival (%): 66.7%
[8]; 5 mg/kg i.v. co-treatment, 50 mg/kg LPS, 40 h
  Percent survival (%): 66.7%
[8]; 5 mg/kg i.v. co-treatment, 50 mg/kg LPS, 44 h
  Percent survival (%): 66.7%
[8]; 5 mg/kg i.v. co-treatment, 50 mg/kg LPS, 48 h
  Percent survival (%): 66.7%
[8]; 5 mg/kg i.v. co-treatment, 50 mg/kg LPS, 52 h
  Percent survival (%): 66.7%
[8]; 5 mg/kg i.v. co-treatment, 50 mg/kg LPS, 56 h
  Percent survival (%): 66.7%
[8]; 5 mg/kg i.v. co-treatment, 50 mg/kg LPS, 60 h
  Percent survival (%): 66.7%
TNFα [3]; 1 μM
  TNFα expression level relative to LPS alone: about 88.68%
  TNFα (pg/mL): 4,654.84 pg/mL
TNFα [3]; 10 μM
  TNFα expression level relative to LPS alone: about 74.68%
  TNFα (pg/mL): 3,919.75 pg/mL
CD40; [10]
  CD40 (Mean fluorescence intensity; MFI): 1,998 MFI
CD40; 10 μM, dendritic cells
  CD40 expression level relative to LPS alone: about 49%
CD40; [14]
  CD40 (Mean fluorescence intensity; MFI): 253 MFI
CD40; [11]
  CD40 (Mean fluorescence intensity; MFI): 982 MFI
TNFα [5]; 10 μM
  TNFα: 78.51 pg/mL
TNFα [9]; [15]
  Reduction of TNFα expression relative to LPS alone: about 46.494%
  TNFα (pg/mL): 2,084.883 pg/mL
TNFα [9]; allithiamine 5 mg/kg, without LPS
  TNFα: 82.442 pg/mL
CD86 [7]; [10]
  CD86 (Mean fluorescence intensity; MFI): 2,184 MFI
CD86 [7]; 10 μM, dendritic cells
  CD86 expression level relative to LPS alone: about 64%
CD86 [7]; [14]
  CD86 (Mean fluorescence intensity; MFI): 304 MFI
CD86 [7]; [11]
  CD86 (Mean fluorescence intensity; MFI): 1,704 MFI
